For test [1], the target named is Neuronal acetylcholine receptor subunit alpha-7 (Rattus norvegicus, UniProt Q05941). In words: Displacement of [125I]iodo-MLA from alpha-7 nAChR in rat cerebral cortex. In kind it is tissue-based.
A short description of test [2]: Selectivity for alpha-7 over alpha4beta2.

Sequence of Neuronal acetylcholine receptor subunit alpha-7 (Q05941 whole entry): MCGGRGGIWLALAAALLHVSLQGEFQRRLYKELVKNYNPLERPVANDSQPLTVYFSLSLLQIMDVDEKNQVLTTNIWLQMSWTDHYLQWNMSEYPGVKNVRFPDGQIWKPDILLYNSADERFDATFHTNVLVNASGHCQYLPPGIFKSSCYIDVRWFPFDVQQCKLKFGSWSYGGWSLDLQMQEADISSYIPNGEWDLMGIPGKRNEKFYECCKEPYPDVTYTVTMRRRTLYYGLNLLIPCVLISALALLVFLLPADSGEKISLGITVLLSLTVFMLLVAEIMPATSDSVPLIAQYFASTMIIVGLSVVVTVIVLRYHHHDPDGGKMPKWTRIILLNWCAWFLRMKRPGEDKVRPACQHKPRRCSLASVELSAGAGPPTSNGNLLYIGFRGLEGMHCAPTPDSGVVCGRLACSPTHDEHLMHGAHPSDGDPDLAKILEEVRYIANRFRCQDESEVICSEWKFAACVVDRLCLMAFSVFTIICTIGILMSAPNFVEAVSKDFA

For orientation: Ki means the equilibrium dissociation constant of an inhibitor or competing ligand from its target. Compound `CN(C)CCOc1ccccc1` registered a Ki in test [1] of more than 10 µM.

For `CN(C)CCOc1ccc(/C=C/c2ccccc2)nc1`, the Ki in test [1] was more than 10 µM.

Turning to `C[N+](C)(C)CCOc1ccc(CCc2ccccc2)cc1`, in test [1], the Ki was 7.5 µM.

As for `C[N+](C)(C)CCOc1ccc(/C=C/c2ccccc2)cc1`, the affinity in test [1], expressed as Ki, was 2.17 µM. Against the preceding compound, the Ki is about 3.5-fold lower.

Compound `CN(C)CCOc1ccc(/C=C/c2ccccc2)cc1` had a Ki in test [1] of more than 10 µM.

In test [1], `CN(C)CCOc1cccnc1` had a Ki of more than 10 µM.

As for `CCN(C)CCOc1cccnc1`, in test [1], the Ki is more than 10 µM.

In turn, `CN(C)CCOc1ccc(CCc2ccccc2)nc1` registered a Ki in test [1] of more than 10 µM.

On to `CN(C)CCOc1ccc(CCc2ccccc2)cc1`, for which, in test [1], the Ki was more than 10 µM.

In turn, `C[N+](C)(C)CCOc1ccccc1` registered a Ki in test [1] of 1.1 µM.

As for `CNCCOc1cccnc1`, the Ki in test [1] was more than 10 µM.

On to `CNC/C=C/c1cccnc1`, for which the Ki in test [1] is more than 10 µM.

Compound `C[N+](C)(C)CCOc1cccnc1` displayed an inhibitory constant (Ki) in test [1] of 0.28 µM. In addition, the Selectivity ratio in test [2] is 560.

The compound `CN1CCCC1c1ccc(CCc2ccccc2)nc1` (racemic) came in with a Ki in test [1] of more than 10 µM.

In turn, `C[N+](C)(C)CCCOc1cccnc1` gave a Ki in test [1] of more than 10 µM.

In the case of `C[N+](C)(C)CCOc1ccc(/C=C/c2ccccc2)nc1`, the Ki in test [1] stood at 1.25 µM. This counts as single-digit micromolar.

Regarding `CNC/C=C\c1cccnc1`, the Ki in test [1] is more than 10 µM.

The compound `CNCCCc1cccnc1` registered a Ki in test [1] of more than 10 µM.

As for `C[N+](C)(C)CCOc1ccc(CCc2ccccc2)nc1`, the affinity in test [1], expressed as Ki, was 4.32 µM.

Source of the values: ChEMBL document CHEMBL1146864, “Aryloxyethylamines: binding at alpha7 nicotinic acetylcholine receptors” (Bioorg Med Chem Lett, 2006).
